Data taken from US20130102595A1 (Curis, Inc., priority 2011, published 2013).

Legend:
[1] = tested on: HDACs (HeLa cell nuclear extracts); assay: HDAC enzymatic activity, Biomol Color de Lys system; format: biochemical; conditions: 1 hour, 25° C.
How it was run: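 HeLa nuclear extract incubated with serially diluted compound and […] artificial substrate in 50 mM Tris/Cl pH 8.0, 137 mM NaCl, 2.7 mM KCl, 1 mM MgCl2. Run 1 h at 25 °C, stopped with developer. Fluorescence read (ex 350-380, em 440-460 nm); IC50 from sigmoidal dose-response fit.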

PI3Kα (p110α/p85α) = biological target: T1, PI3Kα (p110α/p85α) (Homo sapiens, UniProt P42336); assay: PI3Kα ADP-Glo assay; format: biochemical; conditions: 20 μM PIP2, 10 μM ATP, 30 minutes
T1 construct: GST (N); made in house; host or cells: Baculovirus-infected Sf9 cells
T1 sequence (P42336 whole entry): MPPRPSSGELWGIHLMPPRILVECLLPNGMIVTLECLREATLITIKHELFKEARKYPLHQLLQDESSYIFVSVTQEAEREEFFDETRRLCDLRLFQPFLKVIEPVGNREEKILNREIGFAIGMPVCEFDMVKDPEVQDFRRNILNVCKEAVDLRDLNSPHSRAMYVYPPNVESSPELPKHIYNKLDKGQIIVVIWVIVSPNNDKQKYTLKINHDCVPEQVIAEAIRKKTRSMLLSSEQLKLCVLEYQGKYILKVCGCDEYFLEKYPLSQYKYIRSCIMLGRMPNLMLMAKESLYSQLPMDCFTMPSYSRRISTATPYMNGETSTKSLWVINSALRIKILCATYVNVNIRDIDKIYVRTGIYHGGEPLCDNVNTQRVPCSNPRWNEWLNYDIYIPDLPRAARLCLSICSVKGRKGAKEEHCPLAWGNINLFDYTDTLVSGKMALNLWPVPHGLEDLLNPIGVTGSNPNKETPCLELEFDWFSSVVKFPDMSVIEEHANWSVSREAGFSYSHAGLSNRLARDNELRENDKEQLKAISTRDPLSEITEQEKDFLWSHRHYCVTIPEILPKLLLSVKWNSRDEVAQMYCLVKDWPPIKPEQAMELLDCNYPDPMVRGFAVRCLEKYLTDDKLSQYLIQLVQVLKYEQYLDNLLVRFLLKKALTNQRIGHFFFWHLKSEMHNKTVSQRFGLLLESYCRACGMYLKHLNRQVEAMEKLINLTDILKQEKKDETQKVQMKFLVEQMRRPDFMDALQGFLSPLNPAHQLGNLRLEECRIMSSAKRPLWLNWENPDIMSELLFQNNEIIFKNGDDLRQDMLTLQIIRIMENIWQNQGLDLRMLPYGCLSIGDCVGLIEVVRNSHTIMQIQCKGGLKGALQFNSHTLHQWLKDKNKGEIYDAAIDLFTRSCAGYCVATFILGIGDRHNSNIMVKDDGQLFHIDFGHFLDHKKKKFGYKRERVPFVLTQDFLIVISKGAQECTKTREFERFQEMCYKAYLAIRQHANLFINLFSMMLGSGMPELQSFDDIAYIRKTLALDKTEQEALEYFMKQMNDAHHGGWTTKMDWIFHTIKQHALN
T1 sequence (P27986 whole entry partner): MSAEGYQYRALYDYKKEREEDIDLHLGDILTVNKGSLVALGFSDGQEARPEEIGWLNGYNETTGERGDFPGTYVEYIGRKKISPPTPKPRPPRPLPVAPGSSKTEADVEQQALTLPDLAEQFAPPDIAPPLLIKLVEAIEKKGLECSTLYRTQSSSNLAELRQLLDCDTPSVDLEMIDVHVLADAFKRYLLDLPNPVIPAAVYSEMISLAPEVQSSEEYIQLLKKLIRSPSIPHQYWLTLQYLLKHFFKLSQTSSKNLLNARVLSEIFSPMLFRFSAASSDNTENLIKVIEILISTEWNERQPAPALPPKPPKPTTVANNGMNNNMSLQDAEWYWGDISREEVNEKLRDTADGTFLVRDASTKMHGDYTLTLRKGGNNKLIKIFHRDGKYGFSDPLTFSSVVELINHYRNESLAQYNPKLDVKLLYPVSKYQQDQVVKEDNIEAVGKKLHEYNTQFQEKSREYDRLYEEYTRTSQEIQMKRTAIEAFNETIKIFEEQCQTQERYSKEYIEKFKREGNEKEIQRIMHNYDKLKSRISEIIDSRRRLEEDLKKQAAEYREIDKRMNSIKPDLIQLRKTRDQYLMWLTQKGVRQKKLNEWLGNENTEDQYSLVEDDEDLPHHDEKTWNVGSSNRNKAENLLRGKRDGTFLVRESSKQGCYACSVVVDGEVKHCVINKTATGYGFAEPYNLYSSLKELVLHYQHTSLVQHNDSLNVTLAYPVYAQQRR
How it was run: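 Recombinant full-length human GST-p110α/His-p85α, co-expressed in Sf9 cells, was incubated 30 min at room temperature with 20 μM PIP2 and 10 μM ATP. The buffer was 50 mM HEPES pH 7.4, 150 mM NaCl, 5 mM MgCl2, 1 mM DTT, 3 µM orthovanadate and 0.5% DMSO. ADP formed was detected by ADP-Glo luminescence.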

CFPAC-1 = assay: Cell proliferation assay (CellTiter-Glo); format: cell-based; conditions: Homo sapiens, Pancreas, 72 hours, 0.5% fetal bovine serum, read-out: antiproliferative activity IC50, CFPAC-1
How it was run: (§1)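 Plate 5,000 to 10,000 cells per well with compound at several concentrations. Incubate 72 hours in medium with 0.5% fetal bovine serum. Add lysis/luciferase reagent, incubate 30 minutes, and measure luminescence as ATP content.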

CaPan2 = assay: Cell proliferation assay (CellTiter-Glo); format: cell-based; conditions: Homo sapiens, Capan-2; Pancreas; 72 hours, 0.5% fetal bovine serum; read-out: antiproliferative activity IC50, CaPan2
How it was run: as §1

Calu6 = assay: Cell proliferation assay (CellTiter-Glo); format: cell-based; conditions: Homo sapiens, Calu-6; NSCLC; 72 hours, 0.5% fetal bovine serum; read-out: antiproliferative activity IC50, Calu6
How it was run: as §1

H460 = assay: Cell proliferation assay (CellTiter-Glo); format: cell-based; conditions: Homo sapiens, NCI-H460; NSCLC; 72 hours, 0.5% fetal bovine serum; read-out: antiproliferative activity IC50, H460
How it was run: as §1

HCT116 = assay: Cell proliferation assay (CellTiter-Glo); format: cell-based; conditions: Homo sapiens, HCT-116; Colon; 72 hours, 0.5% fetal bovine serum; read-out: antiproliferative activity IC50, HCT116
How it was run: as §1

MDA-MB-231 = assay: Cell proliferation assay (CellTiter-Glo); format: cell-based; conditions: Homo sapiens, Breast, 72 hours, 0.5% fetal bovine serum, read-out: antiproliferative activity IC50, MDA-MB-231
How it was run: as §1

MiaPaca1 = assay: Cell proliferation assay (CellTiter-Glo); format: cell-based; conditions: Pancreas; 72 hours, 0.5% fetal bovine serum; read-out: antiproliferative activity IC50, MiaPaca1
How it was run: as §1

PANC-1 = assay: Cell proliferation assay (CellTiter-Glo); format: cell-based; conditions: Homo sapiens, Pancreas, 72 hours, 0.5% fetal bovine serum, read-out: antiproliferative activity IC50, PANC-1
How it was run: as §1

SW1990 = assay: Cell proliferation assay (CellTiter-Glo); format: cell-based; conditions: Homo sapiens, Pancreas, 72 hours, 0.5% fetal bovine serum, read-out: antiproliferative activity IC50, SW1990
How it was run: as §1

WiDr = assay: Cell proliferation assay (CellTiter-Glo); format: cell-based; conditions: Homo sapiens, Colon, 72 hours, 0.5% fetal bovine serum, read-out: antiproliferative activity IC50, WiDr
How it was run: as §1

Row | IC50 [1] [nM] | IC50 (PI3Kα (p110α/p85α)) [nM] | IC50 (Calu6) [nM] | IC50 (H460) [nM] | IC50 (HCT116) [nM] | IC50 (MDA-MB-231) [nM] | IC50 (MiaPaca1) [nM] | IC50 (PANC-1) [nM] | IC50 (SW1990) [nM] | SMILES | IC50 (CFPAC-1) [nM] | IC50 (CaPan2) [nM] | IC50 (WiDr) [nM]
1 | < 100 | < 100 | 10 to 100 | 100 to 1000 | < 10 | 10 to 100 | 10 to 100 | 10 to 100 | 10 to 100 | CN(Cc1cc2nc(-c3cccc4[nH]ncc34)nc(N3CCOCC3)c2s1)c1ncc(C(=O)NO)cn1 [Compound 54, 2-(((2-(1H-indazol-4-yl)-4-morpholinothieno[3,2-d]pyrimidin-6-yl)methyl)(methyl)amino)-N-hydroxypyrimidine-5-carboxamide] | 100 to 1000 | 10 to 100 | 10 to 100
2 | < 100 | < 100 | 10 to 100 | 10 to 100 | < 10 | 100 to 1000 | < 10 | 10 to 100 | < 10 | CNc1ccc(-c2nc(N3CCOCC3)c3sc(CN(C)c4ncc(C(=O)NO)cn4)cc3n2)cn1 [Compound 111, N-Hydroxy-2-(methyl((2-(6-(methylamino)pyridin-3-yl)-4-morpholinothieno[3,2-d]pyrimidin-6-yl)methyl)amino)pyrimidine-5-carboxamide] | 10 to 100 | 10 to 100 | 10 to 100
3 | < 100 | < 100 | < 10 | 10 to 100 | < 10 | < 10 | < 10 | 10 to 100 | < 10 | CN(Cc1cc2nc(-c3ccc(N)cc3)nc(N3CCOCC3)c2s1)c1ncc(C(=O)NO)cn1 [Compound 150, 2-(((2-(4-aminophenyl)-4-morpholinothieno[3,2-d]pyrimidin-6-yl)methyl)(methyl)amino)-N-hydroxypyrimidine-5-carboxamide] | 10 to 100 | < 10 | 10 to 100
